{
  "source": "patent US10738028B2",
  "about": "“Spiro three-membered ring, spiro five-membered ring peptide deformylase inhibitor and use thereof in antibacteria and anti-tumor” (priority 2016, dated 2020)",
  "assay_type_in_all_cases": "cell-based",
  "key": {"[1]": {"tested_on": "A549 lung cancer cell line", "experiment": "CCK-8 proliferation inhibition", "details": "concentration of 30 μM", "procedure,_shortened": "(§1)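 Plating at 2000 cells/well, then incubation overnight at 37° C. Next, a range of compound concentrations for 72 hours (control 1‰ DMSO). Finally, medium decanted and CCK-8 diluted 1:10 added.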"}, "[2]": {"tested_on": "MGC-803 gastric cancer cell line", "experiment": "CCK-8 proliferation inhibition", "details": "concentration of 30 μM", "procedure,_shortened": "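Using media specific to each line (1640 for MGC-803 and Jurkat, F12 for PC3, DMEM high glucose for MCF-7, each with 10% newborn bovine serum), cells at 2000/well were treated for 72 h with serially formulated compounds, then assessed with CCK-8 diluted 1:10.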"}, "[3]": {"tested_on": "BEL-7402 liver cancer cell line", "experiment": "CCK-8 proliferation inhibition", "details": "concentration of 30 μM, 72 hours, 30 µM", "procedure,_shortened": "as §1"}, "[4]": {"tested_on": "HCT-116 colorectal cancer cell line", "experiment": "CCK-8 proliferation inhibition", "details": "concentration of 30 μM; 72 hours; CCK-8; 30 µM", "procedure,_shortened": "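Proliferation over 72 hours of compound treatment was measured with CCK-8 against a 1‰ DMSO control.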"}, "[5]": {"tested_on": "Enterococcus faecium (EFM)", "experiment": "MIC, two-fold agar dilution (CLSI), clinical isolates", "procedure,_shortened": "(§2)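 Following the American Clinical and Laboratory Standards Institute procedure, agar two-fold dilution served to determine minimum inhibitory concentrations.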"}, "[6]": {"tested_on": "methicillin-sensitive Staphylococcus aureus (MSSA)", "experiment": "MIC, two-fold agar dilution (CLSI), clinical isolates", "procedure,_shortened": "as §2"}, "[7]": {"tested_on": "methicillin-sensitive Staphylococcus epidermidis (MSSE)", "experiment": "MIC, two-fold agar dilution (CLSI), clinical isolates", "procedure,_shortened": "as §2"}, "[8]": {"tested_on": "Moraxella catarrhalis (BCA)", "experiment": "MIC, two-fold agar dilution (CLSI), clinical isolates", "procedure,_shortened": "as §2"}, "[9]": {"tested_on": "Enterococcus faecalis (EFA)", "experiment": "MIC, two-fold agar dilution (CLSI), clinical isolates", "procedure,_shortened": "as §2"}, "[10]": {"tested_on": "methicillin-resistant Staphylococcus aureus (MRSA)", "experiment": "MIC, two-fold agar dilution (CLSI), clinical isolates", "procedure,_shortened": "as §2"}, "[11]": {"tested_on": "methicillin-resistant Staphylococcus epidermidis (MRSE)", "experiment": "MIC, two-fold agar dilution (CLSI), clinical isolates", "procedure,_shortened": "as §2"}, "[12]": {"tested_on": "Escherichia coli (including ESBLs, non-ESBLs)", "experiment": "MIC, two-fold agar dilution (CLSI), clinical isolates", "procedure,_shortened": "as §2"}, "[13]": {"tested_on": "Streptococcus pneoumoniae (SPN)", "experiment": "MIC, two-fold agar dilution (CLSI), clinical isolates", "procedure,_shortened": "as §2"}},
  "data": [
    {"compound": "O=C(C[C@@H](CC1CCCC1)C(=O)N1CC2(CC2)C[C@H]1C(=O)Nc1cnccn1)NO", "note": "[Example 62]", "values": [
      {"measurement": "inhibition at 30 µM", "setting": "[1]; Homo sapiens, A549, 72 h", "result": "> 50", "unit": "%"},
      {"measurement": "Inhibition of proliferation, Lung cancer A549", "setting": "[1]; 72 hours, 30 µM", "result": 59, "unit": "%"},
      {"measurement": "inhibition at 30 µM", "setting": "[2]; Homo sapiens, MGC-803, 72 h", "result": "> 50", "unit": "%"},
      {"measurement": "Inhibition of proliferation, Gastric cancer MGC-803", "setting": "[2]; 72 hours, 30 µM", "result": 64, "unit": "%"},
      {"measurement": "Inhibition of proliferation, Liver cancer BEL-7402", "setting": "[3]", "result": 75, "unit": "%"},
      {"measurement": "HCT116 inhibition rate/%", "setting": "[4]", "result": 79, "unit": "%"},
      {"measurement": "Anti-bacterial activity (MIC), strain EFM 15-1", "setting": "[5]; clinical isolate EFM 15-1", "result": "> 32", "unit": "µg/mL"},
      {"measurement": "Anti-bacterial activity (MIC), strain EFM 15-2", "setting": "[5]; clinical isolate EFM 15-2", "result": "> 32", "unit": "µg/mL"},
      {"measurement": "Anti-bacterial activity (MIC), strain EFM 15-3", "setting": "[5]; clinical isolate EFM 15-3", "result": "> 32", "unit": "µg/mL"},
      {"measurement": "Anti-bacterial activity (MIC), strain EFM 15-4", "setting": "[5]; clinical isolate EFM 15-4", "result": "> 32", "unit": "µg/mL"},
      {"measurement": "Anti-bacterial activity (MIC), strain EFM 15-5", "setting": "[5]; clinical isolate EFM 15-5", "result": 0.5, "unit": "µg/mL"},
      {"measurement": "Anti-bacterial activity (MIC), strain EFM 15-6", "setting": "[5]; clinical isolate EFM 15-6", "result": 0.5, "unit": "µg/mL"},
      {"measurement": "Anti-bacterial activity (MIC), strain MSSA 15-3", "setting": "[6]; clinical isolate MSSA 15-3", "result": 0.5, "unit": "µg/mL"},
      {"measurement": "Anti-bacterial activity (MIC), strain MSSA 15-4", "setting": "[6]; clinical isolate MSSA 15-4", "result": 0.5, "unit": "µg/mL"},
      {"measurement": "Anti-bacterial activity (MIC), strain MSSA 15-5", "setting": "[6]; clinical isolate MSSA 15-5", "result": 16, "unit": "µg/mL"},
      {"measurement": "Anti-bacterial activity (MIC), strain MSSA 15-6", "setting": "[6]; clinical isolate MSSA 15-6", "result": 16, "unit": "µg/mL"},
      {"measurement": "Anti-bacterial activity (MIC), strain MSSE 15-3", "setting": "[7]; clinical isolate MSSE 15-3", "result": 0.5, "unit": "µg/mL"},
      {"measurement": "Anti-bacterial activity (MIC), strain MSSE 15-4", "setting": "[7]; clinical isolate MSSE 15-4", "result": 0.5, "unit": "µg/mL"},
      {"measurement": "Anti-bacterial activity (MIC), strain MSSE 15-5", "setting": "[7]; clinical isolate MSSE 15-5", "result": 0.5, "unit": "µg/mL"},
      {"measurement": "Anti-bacterial activity (MIC), strain MSSE 15-6", "setting": "[7]; clinical isolate MSSE 15-6", "result": 0.5, "unit": "µg/mL"},
      {"measurement": "Anti-bacterial activity (MIC), strain BCA 14-1", "setting": "[8]; clinical isolate BCA 14-1", "result": 2, "unit": "µg/mL"},
      {"measurement": "Anti-bacterial activity (MIC), strain BCA 14-4", "setting": "[8]; clinical isolate BCA 14-4", "result": 2, "unit": "µg/mL"},
      {"measurement": "Anti-bacterial activity (MIC), strain BCA 14-5", "setting": "[8]; clinical isolate BCA 14-5", "result": 0.5, "unit": "µg/mL"},
      {"measurement": "Anti-bacterial activity (MIC), strain BCA 14-6", "setting": "[8]; clinical isolate BCA 14-6", "result": 2, "unit": "µg/mL"},
      {"measurement": "Anti-bacterial activity (MIC), strain BCA 14-7", "setting": "[8]; clinical isolate BCA 14-7", "result": 2, "unit": "µg/mL"},
      {"measurement": "Anti-bacterial activity (MIC), strain BCA 14-8", "setting": "[8]; clinical isolate BCA 14-8", "result": 2, "unit": "µg/mL"},
      {"measurement": "Anti-bacterial activity (MIC), strain BCA 14-10", "setting": "[8]; clinical isolate BCA 14-10", "result": 1, "unit": "µg/mL"},
      {"measurement": "Anti-bacterial activity (MIC), strain EFA 15-1", "setting": "[9]; clinical isolate EFA 15-1", "result": "> 32", "unit": "µg/mL"},
      {"measurement": "Anti-bacterial activity (MIC), strain EFA 15-2", "setting": "[9]; clinical isolate EFA 15-2", "result": "> 32", "unit": "µg/mL"},
      {"measurement": "Anti-bacterial activity (MIC), strain EFA 15-3", "setting": "[9]; clinical isolate EFA 15-3", "result": "> 32", "unit": "µg/mL"},
      {"measurement": "Anti-bacterial activity (MIC), strain EFA 15-4", "setting": "[9]; clinical isolate EFA 15-4", "result": "> 32", "unit": "µg/mL"},
      {"measurement": "Anti-bacterial activity (MIC), strain EFA 15-5", "setting": "[9]; clinical isolate EFA 15-5", "result": "> 32", "unit": "µg/mL"},
      {"measurement": "Anti-bacterial activity (MIC), strain EFA 15-6", "setting": "[9]; clinical isolate EFA 15-6", "result": "> 32", "unit": "µg/mL"},
      {"measurement": "Anti-bacterial activity (MIC), strain EFA 15-9", "setting": "[9]; clinical isolate EFA 15-9", "result": 8, "unit": "µg/mL"},
      {"measurement": "Anti-bacterial activity (MIC), strain MRSA 15-1", "setting": "[10]; clinical isolate MRSA 15-1", "result": 0.125, "unit": "µg/mL"},
      {"measurement": "Anti-bacterial activity (MIC), strain MRSA 15-2", "setting": "[10]; clinical isolate MRSA 15-2", "result": 0.5, "unit": "µg/mL"},
      {"measurement": "Anti-bacterial activity (MIC), strain MRSA 15-3", "setting": "[10]; clinical isolate MRSA 15-3", "result": 0.5, "unit": "µg/mL"},
      {"measurement": "Anti-bacterial activity (MIC), strain MRSA 15-4", "setting": "[10]; clinical isolate MRSA 15-4", "result": 0.5, "unit": "µg/mL"},
      {"measurement": "Anti-bacterial activity (MIC), strain MRSE 15-1", "setting": "[11]; clinical isolate MRSE 15-1", "result": 16, "unit": "µg/mL"},
      {"measurement": "Anti-bacterial activity (MIC), strain MRSE 15-2", "setting": "[11]; clinical isolate MRSE 15-2", "result": 16, "unit": "µg/mL"},
      {"measurement": "Anti-bacterial activity (MIC), strain MRSE 15-3", "setting": "[11]; clinical isolate MRSE 15-3", "result": 0.5, "unit": "µg/mL"},
      {"measurement": "Anti-bacterial activity (MIC), strain MRSE 15-7", "setting": "[11]; clinical isolate MRSE 15-7", "result": 0.5, "unit": "µg/mL"},
      {"measurement": "Anti-bacterial activity (MIC), strain ECO+ 15-1", "setting": "[12]; clinical isolate ECO+ 15-1", "result": 0.5, "unit": "µg/mL"},
      {"measurement": "Anti-bacterial activity (MIC), strain ECO+ 15-2", "setting": "[12]; clinical isolate ECO+ 15-2", "result": 0.5, "unit": "µg/mL"},
      {"measurement": "Anti-bacterial activity (MIC), strain ECO+ 15-3", "setting": "[12]; clinical isolate ECO+ 15-3", "result": 0.5, "unit": "µg/mL"},
      {"measurement": "Anti-bacterial activity (MIC), strain ECO+ 15-4", "setting": "[12]; clinical isolate ECO+ 15-4", "result": 0.5, "unit": "µg/mL"},
      {"measurement": "Anti-bacterial activity (MIC), strain ECO− 15-1", "setting": "[12]; clinical isolate ECO− 15-1", "result": 16, "unit": "µg/mL"},
      {"measurement": "Anti-bacterial activity (MIC), strain ECO− 15-2", "setting": "[12]; clinical isolate ECO− 15-2", "result": 16, "unit": "µg/mL"},
      {"measurement": "Anti-bacterial activity (MIC), strain ECO− 15-3", "setting": "[12]; clinical isolate ECO− 15-3", "result": 16, "unit": "µg/mL"},
      {"measurement": "Anti-bacterial activity (MIC), strain ECO− 15-4", "setting": "[12]; clinical isolate ECO− 15-4", "result": 16, "unit": "µg/mL"},
      {"measurement": "Anti-bacterial activity (MIC), strain SPN 16-2", "setting": "[13]; clinical isolate SPN 16-2", "result": 0.25, "unit": "µg/mL"},
      {"measurement": "Anti-bacterial activity (MIC), strain SPN 16-4", "setting": "[13]; clinical isolate SPN 16-4", "result": 0.5, "unit": "µg/mL"}
    ]}
  ]
}
